# Laboratory results reported in ChEMBL document CHEMBL1201862, “PubChem BioAssay data set” (2004).
# Several values for one entry are separate records, joined by “and”; a condition that tells them apart may be missing. Equal entries are not always repeated. Structures can show the parent of a compound that is named as a salt.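 Tested at 5 concentrations; 48 h exposure; 96-well plates; endpoints linearly interpolated, else capped at highest concentration. GI50 marks 50% less growth.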 Activity calls are given as the source filed them. Cut-off read from the data, not from the text of the source: active = GI50 up to about 1.1 µM and inactive = higher.
# Tests used:
# Assay in all cases: inhibition of tumour cell growth, NCI panel, 48 h
# HOP-18 = tested on: HOP-18
# HL-60 = tested on: HL-60
# SNB-78 = tested on: SNB-78
# Malme-3M = tested on: Malme-3M
# SF-295 = tested on: SF-295
# ACHN = tested on: ACHN
# NCI-H226 = tested on: NCI-H226
# DMS-114 = tested on: DMS-114
# SF-268 = tested on: SF-268
# KM12 = tested on: KM12
# K562 = tested on: K562
# MDA-N = tested on: MDA-N
# XF498 = tested on: XF498
# M14 = tested on: M14
# HOP-62 = tested on: HOP-62
# MDA-MB-231 = tested on: MDA-MB-231
# COLO 205 = tested on: COLO 205
# CAKI-1 = tested on: CAKI-1
# HCC 2998 = tested on: HCC 2998
# MCF7 = tested on: MCF7
# OVCAR-4 = tested on: OVCAR-4
# Hs-578T = tested on: Hs-578T
# MOLT-4 = tested on: MOLT-4
# SK-MEL-2 = tested on: SK-MEL-2
# NCI/ADR-RES = tested on: NCI/ADR-RES
# DU-145 = tested on: DU-145
# MDA-MB-435 = tested on: MDA-MB-435
# A549 = tested on: A549
# SNB-75 = tested on: SNB-75
# OVCAR-5 = tested on: OVCAR-5
# IGROV-1 = tested on: IGROV-1
# KM-20L2 = tested on: KM-20L2
# LXFL 529 = tested on: LXFL 529
# BT-549 = tested on: BT-549
# OVCAR-3 = tested on: OVCAR-3
# RPMI-8226 = tested on: RPMI-8226
# SW-620 = tested on: SW-620
# DLD-1 = tested on: DLD-1
# A498 = tested on: A498
# HT-29 = tested on: HT-29
# HOP-92 = tested on: HOP-92
# EKVX = tested on: EKVX
# NCI-H23 = tested on: NCI-H23
# OVCAR-8 = tested on: OVCAR-8
# RXF 393 = tested on: RXF 393
# LOX IMVI = tested on: LOX IMVI
# RXF 631 = tested on: RXF 631
# TK-10 = tested on: TK-10
# SF-539 = tested on: SF-539
# U-251 = tested on: U-251
# PC-3 = tested on: PC-3
# UACC-257 = tested on: UACC-257
# UO-31 = tested on: UO-31
# NCI-H460 = tested on: NCI-H460
# HCT-116 = tested on: HCT-116
# CCRF-CEM = tested on: CCRF-CEM
# SNB-19 = tested on: SNB-19
# SN12C = tested on: SN12C
# HCT-15 = tested on: HCT-15
# M19-MEL = tested on: M19-MEL
# T47D = tested on: T47D
# SK-OV-3 = tested on: SK-OV-3
# UACC-62 = tested on: UACC-62
# 786-0 = tested on: 786-0
# DMS-273 = tested on: DMS-273
# NCI-H522 = tested on: NCI-H522
# SK-MEL-28 = tested on: SK-MEL-28
# SK-MEL-5 = tested on: SK-MEL-5
# SR = tested on: SR
smiles,measurement,setting,value
COc1ccc2nc3cc(Cl)ccc3c(NCCCN(CCCl)CCCl)c2c1,GI50,HOP-18,2640 nM (inactive)
same,GI50,HL-60,< 10 nM (active)
same,GI50,SNB-78,84.5 nM (active)
same,GI50,Malme-3M,84.1 nM (active)
same,GI50,SF-295,14.2 nM (active)
same,GI50,ACHN,< 10 nM (active)
same,GI50,NCI-H226,38.5 nM (active)
same,GI50,DMS-114,< 10 nM (active)
same,GI50,SF-268,16.4 nM (active)
same,GI50,KM12,52 nM (active)
same,GI50,K562,12.3 nM (active)
same,GI50,MDA-N,31.8 nM (active)
same,GI50,XF498,< 10 nM (active)
same,GI50,M14,40.8 nM (active)
same,GI50,HOP-62,30.1 nM (active)
same,GI50,MDA-MB-231,31.6 nM (active)
same,GI50,COLO 205,< 10 nM (active)
same,GI50,CAKI-1,< 10 nM (active)
same,GI50,HCC 2998,59.6 nM (active)
same,GI50,MCF7,< 10 nM (active)
same,GI50,OVCAR-4,84.5 nM (active)
same,GI50,Hs-578T,32.8 nM (active)
same,GI50,MOLT-4,< 10 nM (active)
same,GI50,SK-MEL-2,140 nM (active)
same,GI50,NCI/ADR-RES,< 10 nM (active)
same,GI50,DU-145,12.1 nM (active)
same,GI50,MDA-MB-435,32.3 nM (active)
same,GI50,A549,< 12.2 nM (active)
same,GI50,SNB-75,177 nM (active)
same,GI50,OVCAR-5,34 nM (active)
same,GI50,IGROV-1,32.4 nM (active)
same,GI50,KM-20L2,33.9 nM (active)
same,GI50,LXFL 529,16.6 nM (active)
same,GI50,BT-549,129 nM (active)
same,GI50,OVCAR-3,43.2 nM (active)
same,GI50,RPMI-8226,< 10 nM (active)
same,GI50,SW-620,11.6 nM (active)
same,GI50,DLD-1,233 nM (active)
same,GI50,A498,16.3 nM (active)
same,GI50,HT-29,11.9 nM (active)
same,GI50,HOP-92,12.6 nM (active)
same,GI50,EKVX,110 nM (active)
same,GI50,NCI-H23,11.6 nM (active)
same,GI50,OVCAR-8,12.5 nM (active)
same,GI50,RXF 393,10.7 nM (active)
same,GI50,LOX IMVI,12.6 nM (active)
same,GI50,RXF 631,11.8 nM (active)
same,GI50,TK-10,452 nM (active)
same,GI50,SF-539,11.1 nM (active)
same,GI50,U-251,18.5 nM (active)
same,GI50,PC-3,< 10 nM (active)
same,GI50,UACC-257,122 nM (active)
same,GI50,UO-31,47.2 nM (active)
same,GI50,NCI-H460,< 10 nM (active)
same,GI50,HCT-116,12 nM (active)
same,GI50,CCRF-CEM,< 10 nM (active)
same,GI50,SNB-19,22.5 nM (active)
same,GI50,SN12C,14 nM (active)
same,GI50,HCT-15,25.3 nM
same,GI50,M19-MEL,44.3 nM (active)
same,GI50,T47D,< 10 nM (active)
same,GI50,SK-OV-3,48.4 nM (active)
same,GI50,UACC-62,15.6 nM (active)
same,GI50,786-0,10.1 nM (active)
same,GI50,DMS-273,16.1 nM (active)
same,GI50,NCI-H522,10.5 nM (active)
same,GI50,SK-MEL-28,197 nM (active)
same,GI50,SK-MEL-5,34 nM (active)
same,GI50,SR,< 10 nM (active)
CC(CN(C)C)C(=O)c1ccccc1 (configuration not stated),GI50,HOP-18,> 100000 nM (inactive)
same,GI50,HL-60,15900 nM (inactive)
same,GI50,SNB-78,31000 nM (inactive)
same,GI50,Malme-3M,24300 nM (inactive)
same,GI50,SF-295,> 100000 nM (inactive)
same,GI50,ACHN,24800 nM (inactive)
same,GI50,NCI-H226,> 100000 nM (inactive)
same,GI50,DMS-114,26600 nM (inactive)
same,GI50,SF-268,30300 nM (inactive)
same,GI50,KM12,18200 nM (inactive)
same,GI50,K562,5020 nM (inactive)
same,GI50,XF498,21300 nM (inactive)
same,GI50,M14,24700 nM (inactive)
same,GI50,HOP-62,> 100000 nM (inactive)
same,GI50,COLO 205,31600 nM (inactive)
same,GI50,CAKI-1,3430 nM (inactive)
same,GI50,HCC 2998,26600 nM (inactive)
same,GI50,OVCAR-4,> 41100 nM (inactive)
same,GI50,MOLT-4,8220 nM (inactive)
same,GI50,SK-MEL-2,22700 nM (inactive)
same,GI50,A549,> 65300 nM (inactive)
same,GI50,SNB-75,> 83900 nM (inactive)
same,GI50,OVCAR-5,32300 nM (inactive)
same,GI50,IGROV-1,> 100000 nM (inactive)
same,GI50,KM-20L2,> 51800 nM (inactive)
same,GI50,LXFL 529,18000 nM (inactive)
same,GI50,OVCAR-3,42400 nM (inactive)
same,GI50,RPMI-8226,940 nM (active)
same,GI50,SW-620,12900 nM (inactive)
same,GI50,DLD-1,8970 nM (inactive)
same,GI50,A498,> 46100 nM (inactive)
same,GI50,HT-29,20000 nM (inactive)
same,GI50,HOP-92,2330 nM (inactive)
same,GI50,EKVX,> 50700 nM (inactive)
same,GI50,NCI-H23,24900 nM (inactive)
same,GI50,OVCAR-8,31600 nM (inactive)
same,GI50,RXF 393,22800 nM (inactive)
same,GI50,LOX IMVI,14900 nM (inactive)
same,GI50,RXF 631,> 86300 nM (inactive)
same,GI50,TK-10,> 100000 nM (inactive)
same,GI50,SF-539,51800 nM (inactive)
same,GI50,U-251,> 100000 nM (inactive)
same,GI50,UACC-257,> 48600 nM (inactive)
same,GI50,UO-31,> 31600 nM (inactive)
same,GI50,NCI-H460,> 78700 nM (inactive)
same,GI50,HCT-116,28800 nM (inactive)
same,GI50,CCRF-CEM,3780 nM (inactive)
same,GI50,SNB-19,> 77300 nM (inactive)
same,GI50,SN12C,17600 nM (inactive)
same,GI50,HCT-15,16600 nM
same,GI50,M19-MEL,19100 nM (inactive)
same,GI50,UACC-62,35800 nM (inactive)
same,GI50,786-0,22600 nM (inactive)
same,GI50,DMS-273,> 100000 nM (inactive)
same,GI50,NCI-H522,2040 nM (inactive)
same,GI50,SK-MEL-28,> 41700 nM (inactive)
same,GI50,SK-MEL-5,> 82400 nM (inactive)
same,GI50,SR,19600 nM (inactive)
Nc1ccc2cc3ccc(N)cc3nc2c1 [PROFLAVINE SULFATE],GI50,HOP-18,2760 nM (inactive)
same,GI50,HL-60,2.62 µM (inactive) and 1.67 µM (inactive)
same,GI50,SNB-78,1120 nM (active)
same,GI50,SF-295,2.45 µM (inactive) and 1.94 µM (inactive)
same,GI50,ACHN,789 nM (active) and 537 nM (active)
same,GI50,DMS-114,1210 nM (inactive)
same,GI50,SF-268,1.32 µM (inactive) and 2.19 µM (inactive)
same,GI50,MDA-N,1210 nM (inactive)
same,GI50,XF498,1530 nM (inactive)
same,GI50,HOP-62,2.47 µM (inactive) and 2.21 µM (inactive)
same,GI50,MDA-MB-231,1620 nM (inactive)
same,GI50,COLO 205,561 nM (active) and 543 nM (active)
same,GI50,CAKI-1,2.18 µM (inactive) and 1.82 µM (inactive)
same,GI50,HCC 2998,794 nM (active) and 1.09 µM (active)
same,GI50,MCF7,638 nM (active)
same,GI50,Hs-578T,2570 nM (inactive)
same,GI50,MOLT-4,338 nM (active) and 284 nM (active)
same,GI50,NCI/ADR-RES,1580 nM (inactive)
same,GI50,DU-145,2210 nM (inactive)
same,GI50,MDA-MB-435,1480 nM (inactive)
same,GI50,SNB-75,1.59 µM (inactive) and 1.16 µM (inactive)
same,GI50,OVCAR-5,3050 nM (inactive)
same,GI50,KM-20L2,767 nM (active)
same,GI50,LXFL 529,953 nM (active)
same,GI50,BT-549,3190 nM (inactive)
same,GI50,OVCAR-3,2.77 µM (inactive) and 1.51 µM (inactive)
same,GI50,RPMI-8226,1.58 µM (inactive) and 1.43 µM (inactive)
same,GI50,SW-620,494 nM (active) and 397 nM (active)
same,GI50,DLD-1,771 nM (active)
same,GI50,HT-29,953 nM (active) and 668 nM (active)
same,GI50,HOP-92,1.45 µM (inactive) and 2.49 µM (inactive)
same,GI50,EKVX,1240 nM (inactive)
same,GI50,OVCAR-8,1.09 µM (active) and 995 nM (active)
same,GI50,LOX IMVI,789 nM (active) and 764 nM (active)
same,GI50,RXF 631,1120 nM (inactive)
same,GI50,TK-10,2.7 µM (inactive) and 4.33 µM (inactive)
same,GI50,SF-539,1.26 µM (inactive) and 1.16 µM (inactive)
same,GI50,UACC-257,1.87 µM (inactive) and 1.49 µM (inactive)
same,GI50,UO-31,690 nM (active) and 652 nM (active)
same,GI50,NCI-H460,528 nM (active) and 485 nM (active)
same,GI50,HCT-116,366 nM (active) and 405 nM (active)
same,GI50,CCRF-CEM,508 nM (active) and 601 nM (active)
same,GI50,SN12C,843 nM (active) and 1.04 µM (active)
same,GI50,M19-MEL,1790 nM (inactive)
same,GI50,T47D,1590 nM (inactive)
same,GI50,UACC-62,1.56 µM (inactive) and 1.6 µM (inactive)
same,GI50,DMS-273,839 nM (active)
same,GI50,SK-MEL-28,2.45 µM (inactive) and 1.88 µM (inactive)
same,GI50,SK-MEL-5,1.61 µM (inactive) and 1.38 µM (inactive)
same,GI50,SR,444 nM (active)
